Experimental data: ChEMBL document CHEMBL5038622, “p-Terphenyls as Anti-HSV-1/2 Agents from a Deep-Sea-Derived Penicillium sp” (J Nat Prod, 2021)
Active and inactive are the calls of the source. The calls are words filed in the database; no cut-off is given here.

Tests used:
[1] = system: HSV-2; assay: Selectivity index, ratio of CC50 for african green monkey Vero cells to EC50 for HSV-2 infected in African green monkey Vero cells; assay type: toxicity; conditions: HSV-2 infected Vero cells
[2] = system: HSV-1; assay: Selectivity index, ratio of CC50 for african green monkey Vero cells to EC50 for HSV-1 infected in African green monkey Vero cells; assay type: toxicity; conditions: HSV-1 infected Vero cells
[3] = system: Human alphaherpesvirus 2; assay: Antiviral activity against HSV-2 infected in African green monkey Vero cells assessed as inhibition of viral replication incubated for 3 days by MTT assay; assay type: functional, organism-based; conditions: Human alphaherpesvirus 2, Vero, 72 h
[4] = system: Human alphaherpesvirus 1; assay: Antiviral activity against HSV-1 infected in African green monkey Vero cells assessed as inhibition of viral replication incubated for 3 days by MTT assay; assay type: functional, organism-based; conditions: Human alphaherpesvirus 1, Vero, 72 h
[5] = Cytotoxicity against African green monkey Vero cells assessed as reduction in cell viability incubated for 3 days by MTT assay; assay type: toxicity, cell-based; conditions: chlorocebus sabaeus, time 3 day
[6] = system: Human alphaherpesvirus 1; assay: Antiviral activity against HSV-1 infected in African green monkey Vero cells assessed as reduction in virus-induced cytopathic effect measured after 48 hrs by MTT assay; assay type: functional, organism-based; conditions: dose 0.63-10 µM
[7] = system: Human alphaherpesvirus 2; assay: Antiviral activity against HSV-2 infected in African green monkey Vero cells assessed as inhibition of syncytium formation at 0.63 to 10 uM coinfected for 1 hr and measured after 24 hrs by H&E staining based optical microscopic analysis; assay type: functional, organism-based; conditions: dose 0.63-10 µM, time 25.0 hrs
[8] = system: Human alphaherpesvirus 2; assay: Antiviral activity against HSV-2 infected in African green monkey Vero cells assessed as reduction in gD protein expression under co-treatment condition by western blot analysis; assay type: functional, organism-based
[9] = system: Zika virus; assay: Antiviral activity against Zika virus at 20 uM; assay type: functional, organism-based
[10] = system: Human alphaherpesvirus 2; assay: Antiviral activity against HSV-2 infected in African green monkey Vero cells assessed as reduction in virus-induced cytopathic effect measured after 48 hrs by MTT assay; assay type: functional, organism-based; conditions: dose 0.63-10 µM
[11] = system: Human alphaherpesvirus 2; assay: Antiviral activity against HSV-2 infected in African green monkey Vero cells assessed as reduction in plague formation measured after 48 hrs by crystal violet staining based plaque formation assay; assay type: functional, organism-based; conditions: dose 0.63-10 µM
[12] = system: Human alphaherpesvirus 2; assay: Antiviral activity against HSV-2 infected in African green monkey Vero cells assessed as reduction in virus induced glycoprotein D gene expression measured after 48 hrs by qRT-PCR analysis; assay type: functional, organism-based; conditions: dose 0.63-10 µM
[13] = system: Human alphaherpesvirus 1; assay: Antiviral activity against HSV-1 infected in African green monkey Vero cells assessed as reduction in plague formation at 10 uM measured after 48 hrs by crystal violet staining based plaque formation assay; assay type: functional, organism-based
[14] = system: Human alphaherpesvirus 2; assay: Antiviral activity against HSV-2 infected in African green monkey Vero cells assessed as reduction in virus induced gD protein expression at 1.3 uM by western blot analysis; assay type: functional, organism-based
[15] = system: Dengue virus; assay: Antiviral activity against Dengue virus at 20 uM; assay type: functional, organism-based
[16] = system: Human alphaherpesvirus 1; assay: Antiviral activity against HSV-1 infected in African green monkey Vero cells assessed as reduction in plague formation measured after 48 hrs by crystal violet staining based plaque formation assay; assay type: functional, organism-based; conditions: dose 0.63-10 µM
[17] = target: T1, Pancreatic triacylglycerol lipase (Homo sapiens) (UniProt P16233); assay: Inhibition of pancreatic lipase (unknown origin) at 100 uM
T1 sequence (whole entry): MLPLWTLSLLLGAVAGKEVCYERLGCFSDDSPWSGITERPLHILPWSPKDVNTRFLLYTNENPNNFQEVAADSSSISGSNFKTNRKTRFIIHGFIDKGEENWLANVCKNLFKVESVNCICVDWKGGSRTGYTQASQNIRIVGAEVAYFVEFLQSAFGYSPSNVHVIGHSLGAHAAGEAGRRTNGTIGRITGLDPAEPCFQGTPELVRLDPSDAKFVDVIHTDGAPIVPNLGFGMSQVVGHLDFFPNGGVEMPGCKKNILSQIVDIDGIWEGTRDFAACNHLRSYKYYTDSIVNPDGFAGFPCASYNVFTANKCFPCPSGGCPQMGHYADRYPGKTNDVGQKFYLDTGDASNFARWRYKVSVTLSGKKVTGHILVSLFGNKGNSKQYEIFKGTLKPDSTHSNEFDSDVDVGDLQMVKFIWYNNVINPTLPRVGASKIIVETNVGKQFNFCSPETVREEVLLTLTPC

[18] = system: Human alphaherpesvirus 1; assay: Antiviral activity against HSV-1 infected in African green monkey Vero cells assessed as inhibition of syncytium formation at 0.63 to 10 uM coinfected for 1 hr and measured after 24 hrs by H&E staining based optical microscopic analysis; assay type: functional, organism-based; conditions: dose 0.63-10 µM, time 25.0 hrs
[19] = target: Acetylcholinesterase (Homo sapiens, UniProt P22303); assay: Inhibition of AChE (unknown origin)
Acetylcholinesterase, sequence (P22303 whole entry): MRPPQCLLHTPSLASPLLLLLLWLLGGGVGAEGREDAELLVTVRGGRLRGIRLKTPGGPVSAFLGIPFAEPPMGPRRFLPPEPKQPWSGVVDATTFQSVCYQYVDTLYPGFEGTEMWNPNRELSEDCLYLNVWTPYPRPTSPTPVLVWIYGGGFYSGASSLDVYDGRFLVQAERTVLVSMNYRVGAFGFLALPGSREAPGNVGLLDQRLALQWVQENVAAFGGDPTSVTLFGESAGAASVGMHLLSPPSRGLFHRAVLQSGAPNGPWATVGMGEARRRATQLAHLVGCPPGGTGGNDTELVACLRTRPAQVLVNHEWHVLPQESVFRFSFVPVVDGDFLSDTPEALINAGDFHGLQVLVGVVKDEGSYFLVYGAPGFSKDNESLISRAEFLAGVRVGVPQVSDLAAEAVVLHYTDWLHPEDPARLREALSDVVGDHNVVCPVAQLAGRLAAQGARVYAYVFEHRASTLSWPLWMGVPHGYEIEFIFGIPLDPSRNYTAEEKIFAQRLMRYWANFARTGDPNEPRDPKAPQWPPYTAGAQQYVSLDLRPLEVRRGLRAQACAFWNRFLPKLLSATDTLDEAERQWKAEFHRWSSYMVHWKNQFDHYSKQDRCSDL

[20] = system: Human alphaherpesvirus 1; assay: Antiviral activity against HSV-1 infected in African green monkey Vero cells assessed as reduction in virus induced glycoprotein D gene expression measured after 48 hrs by qRT-PCR analysis; assay type: functional, organism-based; conditions: dose 0.63-10 µM
[21] = system: Human alphaherpesvirus 2; assay: Antiviral activity against HSV-2 infected in African green monkey Vero cells assessed as reduction in plague formation at 5 uM measured after 48 hrs by crystal violet staining based plaque formation assay; assay type: functional, organism-based
[22] = system: Human alphaherpesvirus 2; assay: Antiviral activity against HSV-2 infected in African green monkey Vero cells assessed as reduction in virus induced VP16 gene expression measured after 48 hrs by qRT-PCR analysis; assay type: functional, organism-based; conditions: dose 0.63-10 µM
[23] = system: Human alphaherpesvirus 1; assay: Antiviral activity against HSV-1 infected in African green monkey Vero cells assessed as reduction in virus induced gD protein expression at 2.5 uM by western blot analysis; assay type: functional, organism-based
[24] = system: Human alphaherpesvirus 1; assay: Antiviral activity against HSV-1 infected in African green monkey Vero cells assessed as reduction in virus induced VP16 gene expression measured after 48 hrs by qRT-PCR analysis; assay type: functional, organism-based; conditions: dose 0.63-10 µM

Row | Compound | selectivity ratio [1] | selectivity ratio [2] | EC50 [3] [µM] | EC50 [4] [µM] | CC50 at 72 h [5] [µM] | other results
1 | O=c1cc(-c2ccc(O)c(O)c2)c(-c2ccc(O)c(O)c2)co1 | > 11.7 | > 10.8 | 8.5 | 9.3 | > 100 | –
2 | COC(=O)c1cc(O)cc(OC)c1C(=O)c1c(O)cc(C)cc1O [SULOCHRIN] | – | – | > 20 | > 20 | – | –
3 | COc1c(-c2ccc(O)c(O)c2)cc2oc3cc(O)c(O)cc3c2c1O | > 41.5 | > 23 | 2.4 | 4.3 | > 100 | –
4 | O=C1C(c2ccc(O)cc2)=CC(=O)c2c1oc1cc(O)c(O)cc21 | – | – | > 20 | > 20 | – | –
5 | COc1c(-c2ccc(O)cc2)cc(O)c(-c2ccc(O)c(O)c2)c1O | > 43.7 | > 54.4 | 2.3 | 1.8 | > 100 | –
6 | COc1c(-c2ccc(O)cc2)cc2oc3cc(O)c(O)cc3c2c1O | > 73.5 | > 45.7 | 1.4 | 2.2 | > 100 | Activity [6]: Dose-Dependent Effect; Activity [7]: Active; Activity [8]: Active; Activity [9]: inactive; Activity [10]: Dose-Dependent Effect; Activity [11]: Active; Activity [12]: Dose-Dependent Effect; Activity [13]: Active; Activity [14]: Active; Activity [15]: inactive; Activity [16]: Active; inhibition [17]: inactive; Activity [18]: Active; IC50 [19]: 16 µM; Activity [20]: Dose-Dependent Effect; Activity [21]: Active; Activity [22]: Dose-Dependent Effect; Activity [23]: Active; Activity [24]: Dose-Dependent Effect
7 | COc1c(-c2ccc(O)cc2)cc(O)c2c1oc1cc(O)c(O)cc12 | > 15.4 | > 24.7 | 6.5 | 4.1 | > 100 | –
8 | COc1c(-c2ccc(O)c(O)c2)cc(O)c2c1oc1cc(O)c(O)cc12 [6'-DESMETHYLCANDIDUSIN B] | > 48.5 | > 24.4 | 2.1 | 4.1 | > 100 | –
9 | Nc1nc2c(ncn2COCCO)c(=O)[nH]1 [ACYCLOVIR] | > 21.9 | > 27.9 | 4.6 | 3.6 | > 100 | –
10 | COc1c(-c2ccc(O)c(O)c2)cc(O)c(-c2ccc(O)c(O)c2)c1O | > 23.8 | > 26.5 | 4.2 | 3.8 | > 100 | –
